Results as given in paper PMC8111499, “GW117: A novel serotonin (5‐HT2C) receptor antagonist and melatonin (MT1/MT2) receptor agonist with potential antidepressant‐like activity in rodents” (CNS Neuroscience & Therapeutics, 2021).

Tests used:
mice [1] = experiment: Tail suspension test in mice; type: in vivo, ICR mice
Procedure: The tail suspension test (TST) was conducted as described earlier. ^28 , ^29 Eighty naive mice were randomly divided into eight treatment groups (n = 10/group). All mice received a single dose of the drug (p.o.). After 60 min of gavage administration, mice were suspended from the top of the apparatus (25 × 25 × 35 cm) using tape about 1 cm from the tail tip. The duration of immobility was recorded in the last 4 min for a total of 6 min. When mice are passively suspended immobile, they are judged to be stationary.

CUS rats = experiment: Open field test in chronic unpredictable stress (CUS) rats; type: in vivo; conditions: CUS rats, 5, 10, 20, 40 mg/kg p.o., 4‐week stress, vs. CUS‐vehicle
Procedure: In order to further examine the antidepressant effects of GW117, chronic unpredictable stress (CUS) model was utilized; the methods were as described before. ^29 , ^31 After 1 week of training, rats underwent sucrose training of 48 h. After training, a sucrose baseline test was performed. […] Gastric gavage was given 1 h before the stress (08:00–09:00). Except for the non‐stressed group, all rats were stimulated by a series of stressors. stress methods included the following: fast on food and water (24 h), moisture cage (150 g sawdust bedding in 200 ml water), overnight illumination, low‐intensity strobe illumination (100 flashes/min), forced swimming (5 min at 10℃), white noise (110 dB), tail pinch (1 cm from tail root, 6 min), 45℃ cage tilt, and restraint (1–2 h). Stressors need to be used continuously and randomly. Non‐stressed rats received free food and water, but were required to fast for 14 h before sucrose preference test. After 4 weeks of stress, the sucrose preference test (SPT) (on day 25), open field test (OFT) (on day 28), and novelty‐suppressed feeding (NSF) test (on day 29) were carried out.
The OFT device was a chamber (diameter, 122 cm; height, 45 cm) that was grouped equally into 16 sections. 24 h after the last administration, rats were put into the center of the chamber and the numbers of crossings and readings were recorded in 5 min.

mice [2] = experiment: Learned helplessness paradigm in mice; type: in vivo, ICR mice; conditions: sub‐chronic, fourth day after inescapable shock training, vs stress
Procedure: For 4 consecutive days, mice were putted into the shuttle box device (40 × 10 × 13 cm), the device was splited into two compartments, and mice could free access. In the IS group, each mouse received 360 inescapable shocks (current intensity 0.30 mA, duration 2 s, 3‐13 s variable interval, about 1 h) over four consecutive training days. Animals in the NIS group underwent the same handling without receiving the foot shocks. 10 trials were conducted on mice to screen helpless, each of which includes conditioned stimulation period (3‐s lamp on), non‐conditioned stimulation period (3‐s lamp +shock), and interval period (without any stimulus, 25 s). […] The EF values were balanced for each group in the experiment. Using Graphic State software (Coulbourn Instruments Inc.,) recorded the number of escape failures and the latency to escape.

5‐HT2C receptor = biological target: T1, 5‐HT2C receptor (Rattus norvegicus, UniProt P08909); experiment: 5‐HT2C receptor binding assay ([3H]‐LSD competition); conditions: mean ± SEM, three independent experiments
T1 construct: 5‐HT2C receptor membrane protein was extracted from rat hippocampus and a stably transfected HEK293 cell line; from tissue; host or cells: rat hippocampus
T1 sequence (P08909 33-460): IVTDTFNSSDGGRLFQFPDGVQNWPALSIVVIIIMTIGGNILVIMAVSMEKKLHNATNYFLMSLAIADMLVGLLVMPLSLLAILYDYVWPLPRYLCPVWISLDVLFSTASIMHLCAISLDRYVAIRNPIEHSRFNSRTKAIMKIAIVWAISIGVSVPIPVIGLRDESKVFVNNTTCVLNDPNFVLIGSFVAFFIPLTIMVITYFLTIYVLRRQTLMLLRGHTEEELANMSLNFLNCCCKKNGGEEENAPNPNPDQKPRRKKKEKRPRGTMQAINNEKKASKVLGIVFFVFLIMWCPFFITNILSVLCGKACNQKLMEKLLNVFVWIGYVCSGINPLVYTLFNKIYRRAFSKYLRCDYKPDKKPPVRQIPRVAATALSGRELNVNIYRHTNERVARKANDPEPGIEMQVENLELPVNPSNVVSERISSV
Procedure: Hippocampal membrane preparations were obtained using previously described methods. ^24 , ^25 , ^26 Briefly, rats were decapitated and their brains were rapidly removed. Next, the hippocampus was dissected and subsequently homogenized in 40 volumes of ice‐cold buffer (50 mM Tris‐HCl Buffer, pH 7.4) and then centrifuged at 40,000 × g at 4°C for 10 min. The particles were re‐suspended and centrifuged again. In order to remove endogenous monoamines, the final suspension was incubated at 37°C for 20 min and then centrifuged as usual. The final pellets were frozen at −80°C at once for up to 1 week.
Human MT1/MT2 receptor membrane proteins were obtained from Perkin‐Elmer (ES‐620 [MT1] and ES‐621 [MT2]). The stably transfected 5‐HT2C receptor HEK293 cell line was prepared using a nucleus‐cytoplasm‐membrane preparation kit (Applagin Technologies Inc.). Briefly, cells were harvested at 4°C, 110 00 × g and centrifugation for 5 min. Homogenize pellets in the assay buffer (50 mM Tris‐HCl buffer containing 120 mM NaCl and 5 mM KCl, pH 7.4) and then centrifuged twice at 4°C, 36,000 × g for 15 min. […]
Receptor membrane protein, 5‐HT2C (50 μl), was added to all the tubes. Non‐specific binding was determined by the presence of unlabeled 10 μM 5‐HT and pre‐reacted for 30 min. […] Finally, 1 ml of scintillation fluid was added and the radioactive intensity measured by liquid scintillation counting.

Compound: [2H]C([2H])([2H])Oc1cc2c(CCNC(C)=O)cccc2cc1Cl [GW117]
- immobility time in TST (mice [1]; acute, p.o., 20 and 40 mg/kg, vs. vehicle): markedly reduced the immobility time
- minimal effective dose in TST (mice [1]; immobility time): 20 mg/kg
- number of rearings and crossings in open field (CUS rats): markedly add to the number of rearings and crossings
- number of failures to escape (mice [2]; 40 mg/kg): significantly decreased the number of failures to escape
- escape latency (mice [2]; 20 and 40 mg/kg): decreased the escape latency
- Ki (5‐HT2C receptor): 0.32 ± 0.08 nM
